Data from PubChem BioAssay AID1963843 (Molecular Pharmacology Branch, DTP, NCI, 2024).
Several values for one entry are separate records, joined by “and”; a condition that tells them apart may be missing. Equal values may be shown once.

Test system: 616215-338-R-J1-PDC complex spheroid viability
Assay: Anticancer human tumor 616215-338-R-J1-PDC patient-derived colon adenocarcinoma cell line growth inhibition [POLQ]
Conditions: for IC50: curve of first compound; for viability, T/C: stronger effect = lower value
Outline: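 Growth inhibition in 3D: complex spheroids (tumor PDC, HUVEC, MSC) treated with POLQ inhibitor combinations; where Cmax unknown, highest tested concentration 10 microM, except SN-38 at 1 microM.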

[1] = second compound 0.0316 µM, first compound 0.0316 µM
[2] = second compound 0.0316 µM, first compound 0.1 µM
[3] = second compound 0.0316 µM, first compound 0.316 µM
[4] = second compound 0.0316 µM, first compound 1 µM
[5] = second compound 0.0316 µM, first compound 3.16 µM
[6] = second compound 0.0316 µM, first compound 10 µM
[7] = second compound 0.1 µM, first compound 0.0316 µM
[8] = second compound 0.1 µM, first compound 0.1 µM
[9] = second compound 0.1 µM, first compound 0.316 µM
[10] = second compound 0.1 µM, first compound 1 µM
[11] = second compound 0.1 µM, first compound 3.16 µM
[12] = second compound 0.1 µM, first compound 10 µM
[13] = second compound 0.316 µM, first compound 0.0316 µM
[14] = second compound 0.316 µM, first compound 0.1 µM
[15] = second compound 0.316 µM, first compound 0.316 µM
[16] = second compound 0.316 µM, first compound 1 µM
[17] = second compound 0.316 µM, first compound 3.16 µM
[18] = second compound 0.316 µM, first compound 10 µM
[19] = second compound 1 µM, first compound 0.0316 µM
[20] = second compound 1 µM, first compound 0.1 µM
[21] = second compound 1 µM, first compound 0.316 µM
[22] = second compound 1 µM, first compound 1 µM
[23] = second compound 1 µM, first compound 3.16 µM
[24] = second compound 1 µM, first compound 10 µM
[25] = second compound 3.16 µM, first compound 0.0316 µM
[26] = second compound 3.16 µM, first compound 0.1 µM
[27] = second compound 3.16 µM, first compound 0.316 µM
[28] = second compound 3.16 µM, first compound 1 µM
[29] = second compound 3.16 µM, first compound 3.16 µM
[30] = second compound 3.16 µM, first compound 10 µM
[31] = second compound 10 µM, first compound 0.0316 µM
[32] = second compound 10 µM, first compound 0.1 µM
[33] = second compound 10 µM, first compound 0.316 µM
[34] = second compound 10 µM, first compound 1 µM
[35] = second compound 10 µM, first compound 3.16 µM
[36] = second compound 10 µM, first compound 10 µM
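Note: spheroids exposed to compounds for one week before readout.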
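Throughout, for viability, T/C: percent viability relative to DMSO vehicle wells taken as 100%.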

## COc1cc(C2c3cc4c(cc3C(OC3OC5COC(C)OC5C(O)C3O)C3COC(=O)C23)OCO4)cc(OC)c1O (stereo not given) + COC1C(OC(N)=O)C(O)C(Oc2ccc3c(O)c(NC(=O)c4ccc(O)c(CC=C(C)C)c4)c(=O)oc3c2C)OC1(C)C
Second compound 0.0316 µM
  IC50: > 10 µM
Second compound 0.1 µM
  IC50: > 10 µM
Second compound 0.316 µM
  IC50: > 10 µM
Second compound 1 µM
  IC50: 8.65 µM
Second compound 3.16 µM
  IC50: > 10 µM
Second compound 10 µM
  IC50: > 10 µM
[1]
  viability, T/C: 100%
[2]
  viability, T/C: 102%
[3]
  viability, T/C: 95.3%
[4]
  viability, T/C: 83%
[5]
  viability, T/C: 88.3%
[6]
  viability, T/C: 54.2%
[7]
  viability, T/C: 117%
[8]
  viability, T/C: 117%
[9]
  viability, T/C: 95.6%
[10]
  viability, T/C: 81.8%
[11]
  viability, T/C: 77.1%
[12]
  viability, T/C: 59.8%
[13]
  viability, T/C: 108%
[14]
  viability, T/C: 106%
[15]
  viability, T/C: 93.4%
[16]
  viability, T/C: 85.8%
[17]
  viability, T/C: 81%
[18]
  viability, T/C: 55%
[19]
  viability, T/C: 104%
[20]
  viability, T/C: 113%
[21]
  viability, T/C: 92.5%
[22]
  viability, T/C: 86.1%
[23]
  viability, T/C: 74.5%
[24]
  viability, T/C: 45.8%
[25]
  viability, T/C: 111%
[26]
  viability, T/C: 111%
[27]
  viability, T/C: 100%
[28]
  viability, T/C: 79%
[29]
  viability, T/C: 68.1%
[30]
  viability, T/C: 59.3%
[31]
  viability, T/C: 106%
[32]
  viability, T/C: 108%
[33]
  viability, T/C: 84.5%
[34]
  viability, T/C: 82.5%
[35]
  viability, T/C: 74.1%
[36]
  viability, T/C: 56.5%

## COc1cc(C2c3cc4c(cc3C(OC3OC5COC(C)OC5C(O)C3O)C3COC(=O)C23)OCO4)cc(OC)c1O (stereo not given) + Cc1cccc(N(C)C(=O)C2C(O)CCN2c2nc(C)cc(C(F)(F)F)c2C#N)c1
Second compound 0.0316 µM
  IC50: > 10 µM
Second compound 0.1 µM
  IC50: > 10 µM
Second compound 0.316 µM
  IC50: 9.66 µM
Second compound 1 µM
  IC50: 9.43 µM
Second compound 3.16 µM
  IC50: > 10 µM
Second compound 10 µM
  IC50: 9.51 µM
[1]
  viability, T/C: 95.8%
[2]
  viability, T/C: 102%
[3]
  viability, T/C: 85.3%
[4]
  viability, T/C: 94%
[5]
  viability, T/C: 70.9%
[6]
  viability, T/C: 61.5%
[7]
  viability, T/C: 94.8%
[8]
  viability, T/C: 95.5%
[9]
  viability, T/C: 94.1%
[10]
  viability, T/C: 77.9%
[11]
  viability, T/C: 80.6%
[12]
  viability, T/C: 50.8%
[13]
  viability, T/C: 95.4%
[14]
  viability, T/C: 101%
[15]
  viability, T/C: 88.6%
[16]
  viability, T/C: 85.1%
[17]
  viability, T/C: 73.4%
[18]
  viability, T/C: 48.8%
[19]
  viability, T/C: 94.4%
[20]
  viability, T/C: 96.5%
[21]
  viability, T/C: 85.4%
[22]
  viability, T/C: 81.4%
[23]
  viability, T/C: 76.7%
[24]
  viability, T/C: 47.2%
[25]
  viability, T/C: 105%
[26]
  viability, T/C: 106%
[27]
  viability, T/C: 80.5%
[28]
  viability, T/C: 81.7%
[29]
  viability, T/C: 78%
[30]
  viability, T/C: 48.9%
[31]
  viability, T/C: 107%
[32]
  viability, T/C: 102%
[33]
  viability, T/C: 68.4%
[34]
  viability, T/C: 93.3%
[35]
  viability, T/C: 67.4%
[36]
  viability, T/C: 44.7%

## CC1COCCN1c1cc(C2(O)CC3CCC(C2)O3)c2cnn(-c3ccn[nH]3)c2n1 (stereo not given)
Compound 0.0316 µM
  viability, T/C: 99.2% and 95.5% and 88%
Compound 0.1 µM
  viability, T/C: 91.8% and 93% and 73.8%
Compound 0.316 µM
  viability, T/C: 73.3% and 70.1% and 46.3%
Compound 1 µM
  viability, T/C: 76.6% and 53.7% and 34.7%
Compound 3.16 µM
  viability, T/C: 54% and 46% and 21%
Compound 10 µM
  viability, T/C: 40.1% and 32.2% and 19.3%
